Measured values as given in patent US11020392B2, “Use of trimetazidine as a hepatoprotective medicine in prevention and treatment of liver diseases and conditions” (Martin Pharmaceuticals, Inc., priority 2015, dated 2021).

How the values were obtained:
[1] = tested on: liver of liver failure patients; assay: PET-CT imaging of liver FDG uptake before and after treatment; format: in vivo, human; conditions: liver failure patient(s), after vs before treatment; FIG. 4
Description: Intriguingly, we were able to compare the PET-CT images before and after liver failure recovery in two participants who underwent PET-CT imaging due to suspicious liver lesions by magnet renascence imaging.

[2] = tested on: SD rats; assay: Hyperammonemia rat model (oral ammonium chloride, 30 days); format: in vivo; conditions: OA (LOLA) 0.8 g/kg, TMZ 0.002 g/kg orally, or both; FIG. 8
Description: All five groups of rats were sacrificed after 30 days with pentobarbital anesthesia. Cardiac blood samples were collected to test blood levels of ammonia, ALT and AST. Liver biopsy specimens were collected and subject to hematoxylin-eosin (HE) staining and TUNEL staining to assess pathology.

[3] = tested on: liver failure patients; assay: Clinical cohort study of trimetazidine in hepatic failure patients (ALT/AST decrease, TMZ vs DCA); format: in vivo, human; conditions: after 5 days of treatment, both groups also on basic treatment incl. LOLA, FIG. 2
Description: The single-center cohort study was adopted as the clinical trial method.
In accordance with relevant references and the results of previous trials, the number of cases shall be no less than 50. Taking into account the number of loss to follow up and possible drop-out (to be controlled around 10%), 60 cases are required to be selected (30 cases for the trial group and 30 cases for the control group).
All serious hepatitis patients enrolled between Aug. 19, 2014 and […] were put in the control group; and all those enrolled between December 9 and the application date were in the trial group.
2. Exclusion Criteria • Patients under 18 or over 70 years old; • Patients diagnosed with shock liver (ischemic liver disease); • Patients with liver failure in pregnancy or HELLP syndrome; • Patients with liver failure secondary to malignant tumor in the liver; • Patients with refractory hypotension • Patients with septic shock; • Patients about to receive liver transplant (within 8 hours); • Patients allergic to trimetazidine drug; • Patients […] of trimetazidine drug; • Abuser of drugs and/or alcohol; • Pregnant or lactation women; • Patients with recent myocardial infarct (within half a year); • Patients with serious renal inadequacy.
2. Control group: Diisopropylamine Dichloroacetate (DCA) (80 mg/D) for the control group in this trial, provided by Dandong Yichuang Pharmaceutical Co., Ltd, for a 4-week course of treatment.
3. Both trial group and control group were also given basic treatment to meet ethical requirements. […] HBV-related liver failure patients were also treated with lamivudine.
1. Alanine aminotransferase (ALT), tested by chromatometry, with products provided by Roche Diagnostics (Shanghai) Ltd.
2. Aspartate transaminase (AST), tested by chromatometry, with products provided by Roche Diagnostics (Shanghai) Ltd.

[4] = tested on: Chang liver cells; format: cell-based; conditions: 10 mM NH4Cl; 1 mM LOLA, 1 mM TMZ, or 1 mM TMZ+1 mM LOLA; hypoxic (10% O2); FIG. 7
Description: Chang liver cells (American Type Culture Collection No. CCL-13) was cultured in RPMI1640 medium (Solarbio) containing 10% fetal bovine serum (Gibco), 100 u/mL penicillin and 100 μg/mL […], at 37° C. and under hypoxic conditions (10% O2, 5% CO2) and saturated humidity.

[5] = tested on: patients with liver failure / serious hepatitis; assay: Clinical cases: individual patients given oral TMZ on top of combined treatment; format: in vivo, human
Description: Case 1: The patient had past positive HBsAg for over 20 years, during which they took multiple reexaminations of liver function and, as the results of all color ultrasound examinations were within normal range, they were not given any special treatment. Three months before, after catching cold and overwork, they developed abdominal distension and yellow urine, and was admitted to hospital following aggravation of the condition over 6 days. On admission, they were complicated with massive seroperitoneum and serious xanthochromia throughout the skin and mucosa of their whole body, feeling serious nausea, anorexia and feebleness.
Case 2: had had yellow urine for 25 days and dry mouth and bitter taste in mouth for 10 days before they came to the First Affiliated Hospital of Zhengzhou University. […] If they had been treated with the original approach, it would probably have taken two months before they could be discharged from hospital.
Case 3: had past positive HBsAg for 8 years, without regular treatment or periodic reexamination of relevant indicators. […] They took orally some “stomach medicine” (specific medicine not known) with poor effect. After the aforesaid symptoms aggravated for half a month, with urine turning as yellow as strong tea water, they were admitted to the First Affiliated Hospital of Zhengzhou University on Jan. 21, 2015. […] In merely 12 days, the patient achieved decrease of transaminase by dozens of times, relief from the critical condition, alleviated hepatocyte inflammatory responses and a favorable condition for liver cells, and greatly shortened length of hospitalization.
Case 4: […] They felt abdominal distension and nausea, accompanied with hydroncus in lower limbs, when they were tired half a month ago. For further treatment, they were admitted to the First Affiliated Hospital of Zhengzhou University on Jan. 13, 2015. Color ultrasound examination of abdomen detected diffuse changes of echo patterns of liver, cholecystolithiasis and cholecystitis. […] The patient's liver enzyme decreased to normal level after a short period, meeting the requirements for a surgical operation. Following the operation, their abdominal pain disappeared, with liver enzyme back to normal level and improved appetite. Their quality of life improves now without any discomfort.
Case 5: had past positive HBsAg for over 10 years, with HBsAg (+), HBeAg (+) and HBcAb (+), and had atrial fibrillation over 5 years, during which they orally took traditional Chinese medicine intermittently, but without regular treatment. They complained of feebleness, nausea, dry mouth and bitter taste, and anorexia for 6 days, and was hospitalized on Jan. 31, 2015. After admission, they had ALT 1881 u/L, AST 699 u/L, and prothrombin time activity (PTA) at 26%. The patient was extremely weak, in very poor spirits, with very poor appetite. A notice of critical illness diagnosis was given. […] The patient achieved a rapid decrease of transaminase and obvious improvement of liver synthesis function, and was safe from the critical condition. They continued to take the medicine till maturity of the treatment course, to improve the hepatocyte microcirculation and excretion of bilirubin. The patient soon recovered and left hospital.

[6] = tested on: liver failure patients; assay: Large-scale randomized clinical trial, 165 liver failure patients (control, LOLA, TMZ+LOLA)
Description: We recruited totally 298 patients with liver failure according to the American and European criteria.

Compound | FDG uptake / hepatic glucose metabolism of liver (PET-CT) [1] | integrity of mitochondrial structure in hepatocytes exposed to ammonia (electron microscope) [2] | ALT decrease (k, mathematical model) [3] | AST decrease (k, mathematical model) [3] | reduction of ammonia in hepatocytes [4] | ALT ([5]; Case 1, HBsAg positive person, 12 days of TMZ one tablet three times a day plus combined treatment, ALT 270 u/L at admission) | AST ([5]; Case 1, 12 days of TMZ, AST 303 u/L at admission) | ALT ([5]; Case 2, serious drug-induced hepatitis, oral TMZ 20 days plus combined treatment, ALT 983 u/L at admission) | total bilirubin ([5]; Case 2, oral TMZ 20 days, 401.9 umol/L at admission) | AST ([5]; Case 2, oral TMZ 20 days, AST 484 u/L at admission) | ALT ([5]; Case 3, acute-on-chronic liver failure, oral TMZ plus antiviral treatment, admitted Jan. 21, reexamined February 5 (12 days), ALT 1386 u/L at admission) | AST ([5]; Case 3, reexamined February 5, AST 1368 u/L at admission) | ALT ([5]; Case 4, HBsAg positive person, oral TMZ 13 days plus hepatoprotective and antiviral treatment, ALT 599 u/L before) | AST ([5]; Case 4, oral TMZ 13 days, AST 663 u/L before) | prothrombin time activity (PTA) ([5]; Case 5, one week of oral TMZ, 26% at admission) | AST ([5]; Case 5, one week of oral TMZ, AST 699 u/L at admission) | 30-day immortality rate ([6]; TMZ treatment group (TMZ+LOLA), TMZ 20 mg orally three times a day, 4 weeks, 44% with traditional therapeutic approach, FIG. 5) | 90-day immortality rate ([6]; TMZ treatment group (TMZ+LOLA), TMZ 20 mg orally three times a day, 4 weeks, 68% with traditional therapeutic approach, FIG. 5) | serious adverse reaction during the clinical trial ([6]; liver failure patients, TMZ 20 mg three times a day)
COc1ccc(CN2CCNCC2)c(OC)c1OC.Cl.Cl [TMZ, 1-[2,3,4-trimethoxybenzyl]piperazine dihydrochloride] | remarkably improved | nearly reversed the ammonia-induced mitochondria injury | 259.4 | 362.53 | greater effects compared to both LOLA treatment and TMZ+LOLA co-treatment | 41 u/L | 68 u/L | 95 u/L | 130 µmol/L | 52 u/L | 76 u/L | 85 u/L | 66 u/L | 79 u/L | 48% | 77 u/L | approximately 18% | 35% | no serious adverse reaction occurred
Diisopropylamine Dichloroacetate [DCA] | – | – | 67.325 | 142.77 | – | – | – | – | – | – | – | – | – | – | – | – | – | – | –
